Data taken from the SangsterLogP compilation.

| SMILES | logP |
| --- | --- |
| CC(C)CN1C(=O)CC2CCC(C)C3CCC4(C)OOC23C1O4 (stereo not given) | 3.66 |
| C[C@@H]1CC[C@H]2[C@@H](C)C(=O)O[C@@H]3O[C@@]4(C)CC[C@@H]1[C@]32OO4 (relative stereo) | 2.9 |
| CC1CCC2CC(=O)N(CC(=O)O)C3OC4(C)CCC1C23OO4 (stereo not given) | 1.75 |
| CCCCCN1C(=O)CC2CCC(C)C3CCC4(C)OOC23C1O4 (stereo not given) | 4.24 |
| CC(C)CCN1C(=O)CC2CCC(C)C3CCC4(C)OOC23C1O4 (stereo not given) | 4.16 |
| CC1CCC2CC(=O)N(CCCc3ccccc3)C3OC4(C)CCC1C23OO4 (stereo not given) | 4.39 |
| CC1CCC2CC(=O)N(CCc3ccccc3)C3OC4(C)CCC1C23OO4 (stereo not given) | 3.94 |
| CCCN1C(=O)CC2CCC(C)C3CCC4(C)OOC23C1O4 (stereo not given) | 3.41 |
| CC1CCC2CC(=O)N(Cc3ccc(Cl)cc3)C3OC4(C)CCC1C23OO4 (stereo not given) | 4.32 |
| C[C@@H]1CC[C@H]2[C@@H](C)CO[C@@H]3O[C@]4(C)CC[C@@H]1[C@]32OO4 | 3.16 |
